Source: patent US20110275703A1, “SUBSTITUTED SPIROKETAL DERIVATIVES AND USE THEREOF AS THERAPEUTIC DRUG FOR DIABETES” (CHUGAI SEIYAKU KABUSHIKI KAISHA, priority 2007, published 2011)
Where two headings read alike, the source gives them in different places.

Columns and labels:
human SGLT2 = target: T1, human SGLT2 (Homo sapiens, UniProt P31639); assay: Inhibitory activity against methyl-α-D-glucopyranoside uptake, CHO cells stably expressing human SGLT2; assay type: cell-based; conditions: inhibition of SGLT2, Table 2-1; read-out: IC50 value
T1 construct: expressed in transfected cells; host or cells: CHO-K1
T1 sequence (P31639 1-672): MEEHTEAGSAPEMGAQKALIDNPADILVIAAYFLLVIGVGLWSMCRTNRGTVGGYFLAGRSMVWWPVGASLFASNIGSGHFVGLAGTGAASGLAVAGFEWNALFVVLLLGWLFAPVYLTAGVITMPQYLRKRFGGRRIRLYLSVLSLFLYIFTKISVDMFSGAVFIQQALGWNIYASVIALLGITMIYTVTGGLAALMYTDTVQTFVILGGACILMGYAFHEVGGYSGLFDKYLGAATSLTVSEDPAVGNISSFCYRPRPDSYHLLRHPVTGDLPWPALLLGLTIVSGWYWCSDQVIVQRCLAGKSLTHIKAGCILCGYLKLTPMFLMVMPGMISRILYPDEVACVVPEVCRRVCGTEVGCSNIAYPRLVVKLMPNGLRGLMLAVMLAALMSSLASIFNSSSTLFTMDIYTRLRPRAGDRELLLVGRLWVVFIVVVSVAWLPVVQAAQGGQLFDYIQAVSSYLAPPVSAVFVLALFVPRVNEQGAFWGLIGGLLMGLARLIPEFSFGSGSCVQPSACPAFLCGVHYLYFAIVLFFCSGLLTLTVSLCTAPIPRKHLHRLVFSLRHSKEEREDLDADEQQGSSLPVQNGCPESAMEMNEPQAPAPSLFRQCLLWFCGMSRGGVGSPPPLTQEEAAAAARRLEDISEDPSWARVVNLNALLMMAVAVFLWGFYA
Excerpt: Evaluation of inhibitory activity against methyl-α-D-glucopyranoside uptake of human Na^+-glucose cotransporter (SGLT1 and SGLT2)
2) Construction of Human SGLT2 Expression Vector
Human SGLT2 cDNA was amplified by PCR with a cDNA library derived from human kidney (Clontech) as a template, synthetic DNA primers and KOD+ DNA Polymerase. The amplified cDNA was inserted into pcRII-Topo vector by using a Topo TA Cloning Dual Promoter kit. E. coli competent cells (TPO10) were transformed with the plasmid vector, cultured in LB medium containing ampicillin (50 mg/L) to grow ampicillin-resistant clones. The plasmid vector containing human SGLT2 cDNA was purified from the clone in a standard manner. Human SGLT2 cDNA added restriction enzyme recognition sites (Xho I at 5′-end, Hind III at 3′-end) was amplified by PCR with the plasmid vector as a template, synthetic DNA primers containing an additional restriction enzyme recognition site and KOD+ DNA Polymerase. This amplified cDNA was digested with Xho I and Hind III, and ligated into expression vector pcDNA3.1(−) digested with Xho I and Hind III by using a Rapid DNA Ligation kit. E. coli competent cells (DH5α) were transformed with the ligated expression vector and grown in ampicillin-containing LB medium. Human SGLT2 expression vector was purified from the ampicillin-resistant clone in a standard manner.
3) Establishment of Cell Lines Stably Expressing Human SGLT1 or Human SGLT2
The human SGLT1 expression vector or the human SGLT2 expression vector was digested with the restriction enzyme Pvu I and transfected into CHO-Kl cells with FuGENE (Roche Diagonostics). After the transfection, the cells were cultured at 37° C. in the presence of 5% CO2 for about 3 weeks in DMEM medium (Gibco) containing penicillin (50 U/mL, SIGMA), streptomycin (50 mg/L, SIGMA), geneticin (200 mg/L, Nacalai Tesque, Inc., Japan) and 20% fetal bovine serum to obtain geneticin-resistant clones. Among these clones, clones stably expressing human SGLT1 or human SGLT2 were selected by the evaluating the sodium-dependent uptake activity of sugar (methyl-α-D-glucopyranoside).
4) Evaluation of Inhibitory Activity Against methyl-α-D-glucopyranoside uptake
Cell lines stably expressing human SGLT1 or human SGLT2 CHO were seeded in 96-well culture plates at a density of 30000 to 40000 cells/well and cultured for 4 to 6 days. The medium in these plates was removed and replaced by 150 μL/well pretreatment buffer (i.e., a buffer containing 140 mM choline chloride, 2 mM potassium chloride, 1 mM calcium chloride, 1 mM magnesium chloride, 10 mM 2-[4-(2-hydroxyethyl)-1-piperazinyl]ethanesulfonic acid and tris(hydroxymethyl)aminomethane, pH 7.4), and the plates were incubated at 37° C. for 20 minutes. The pretreatment buffer in the plates was removed, replaced by 50 μL/well fresh pretreatment buffer, and the plates were incubated at 37° C. for 20 minutes. Methyl-α-D-(U—^14C)glucopyranoside (6.3 mL, Amersham Pharmacia Biotech, 200 mCi/L) was added to and mixed with 100 mL buffer (i.e., a buffer containing 140 mM sodium chloride, 2 mM potassium chloride, 1 mM calcium chloride, 1 mM magnesium chloride, 1 mM methyl-α-D-glucopyranoside, 10 mM [4-(2-hydroxyethyl)-1-piperazinyl]ethanesulfonic acid and tris(hydroxymethyl)aminomethane, pH 7.4), which was used as uptake buffer. Test compounds were dissolved into uptake buffer and these test compound solutions were used for evaluating inhibitory activity. Uptake buffer without a test compound was used as a control solution. Moreover, for use in measuring baseline uptake in the absence of sodium, sodium-free solution was prepared in the same manner to contain 140 mM choline chloride instead of sodium chloride. The pretreatment buffer was removed from each well of the plates and replaced by 35 μL/well test compound solutions, control solution or sodium-free solution, and the plates were incubated at 37° C. for 45 minutes. […]

db/db mice = assay: Study for glucose lowering effect in db/db mouse; assay type: in vivo; conditions: Mus musculus, 6 hours
Procedure: Study for Glucose Lowering Effect in dB/dB Mouse
A study for glucose lowering effect was conducted using db/db mice (purchased from Clea Japan, Inc., male, 9 to 11 weeks old), type 2 diabetic model mice. On the day of the study, body weights and blood glucose levels were measured prior to the start of testing. Measurement of the blood glucose levels was performed using a simple blood glucose meter (manufactured by Bayer HealthCare, Dexter-Z II). The mice were allocated to some groups consisting of 5 mice each so that homogeneity of body weights or blood glucose levels among groups would be ensured. Blood collection was carried out by making an incision on the tip of the tail and taking the blood therefrom. On the day of the study, the test compounds were suspended in 0.5% carboxymethylcellulose solution (CMC solution), and the dosing solutions of which concentration was adjusted to either 0.3 mg/10 mL or 3 mg/10 mL were prepared. The dosing solutions were orally administered by gavage for mice in 10 mL/kg. To the control group, only a 0.5% CMC solution was orally administered in 10 mL/kg. Blood was collected prior to or sequentially after administration of test compounds by above method. The blood glucose levels were determined using a hexokinase method (AutoSera S GLU, manufactured by Daiichi Pure Chemicals Co., Ltd.). A percent reduction of blood glucose relative to control group at each time point after administration of test compounds was calculated by the following equation.
Percent reduction of blood glucose (%)={blood glucose level in the control group (mg/dL)-blood glucose level in the test compound group (mg/dL)}/blood glucose level in the control group (mg/dL)×100

[1] = po, 0.3 mg/kg administration, read-out: reduction of blood glucose 6 hours after administration
[2] = oral, 0.3 mg/kg, relative to control group, Table 3-1, read-out: Percent reduction of blood glucose (%) 6 hours after administration

IC50 (human SGLT2) [nM]	SMILES	inhibition in vivo at 0.3 mg/kg (db/db mice; [1]) [%]	inhibition in vivo at 0.3 mg/kg (db/db mice; [2]) [%]
1.3	OC[C@H]1O[C@]2(OCc3cc(Cl)c(Cc4cccs4)cc32)[C@H](O)[C@@H](O)[C@@H]1O [Example 30, (1S,3′R,4′S,5′S,6′R)-5-chloro-3′,4′,5′,6′-tetrahydro-6′-(hydroxymethyl)-6-[(thiophen-2-yl)methyl]-spiro[isobenzofuran-1(3H),2′-[2H]pyran]-3′,4′,5′-triol]	≥ 25	
1.8	CCOc1ccc(Cc2cc3c(cc2C)CO[C@]32O[C@H](CO)[C@@H](O)[C@H](O)[C@H]2O)cc1 [Example 24, (1S,3′R,4′S,5′S,6′R)-6-[(4-ethoxyphenyl)methyl]-3′,4′,5′,6′-tetrahydro-6′-(hydroxymethyl)-5-methyl-spiro[isobenzofuran-1(3H),2′-[2H]pyran]-3′,4′,5′-triol]	≥ 25	
2.2	COc1ccc(Cc2cc3c(cc2F)CO[C@]32O[C@H](CO)[C@@H](O)[C@H](O)[C@H]2O)cc1 [Example 20, (1S,3′R,4′S,5′S,6′R)-5-fluoro-3′,4′,5′,6′-tetrahydro-6′-(hydroxymethyl)-6-[(4-methoxyphenyl)methyl]-spiro[isobenzofuran-1(3H),2′-[2H]pyran]-3′,4′,5′-triol]	≥ 25	
1.5	COc1ccc(Cc2cc3c(cc2C)CO[C@]32O[C@H](CO)[C@@H](O)[C@H](O)[C@H]2O)cc1 [Example 23, (1S,3′R,4′S,5′S,6′R)-3′,4′,5′,6′-tetrahydro-6′-(hydroxymethyl)-6-[(4-methoxyphenyl)methyl]-5-methyl-spiro[isobenzofuran-1(3H),2′-[2H]pyran]-3′,4′,5′-triol]	≥ 25	
2.6	Cc1cc2c(cc1Cc1ccc(OC(F)(F)F)cc1)[C@]1(OC2)O[C@H](CO)[C@@H](O)[C@H](O)[C@H]1O [Example 27, (1S,3′R,4′S,5′S,6′R)-6-[(4-trifluoromethoxyphenyl)methyl]-3′,4′,5′,6′-tetrahydro-6′-(hydroxymethyl)-5-methyl-spiro[isobenzofuran-1(3H),2′-[2H]pyran]-3′,4′,5′-triol]	≥ 25	
1.1	Cc1cc2c(cc1Cc1ccc(CCF)cc1)[C@]1(OC2)O[C@H](CO)[C@@H](O)[C@H](O)[C@H]1O [Example 22, (1S,3′R,4′S,5′S,6′R)-6-[(4-(2-fluoroethyl)phenyl)methyl]-5-methyl-3′,4′,5′,6′-tetrahydro-6′-(hydroxymethyl)-spiro[isobenzofuran-1(3H),2′-[2H]pyran]-3′,4′,5′-triol]	≥ 25	

Further lines, the molecule ahead of its results:

SMILES	IC50 (human SGLT2) [nM]	inhibition in vivo at 0.3 mg/kg (db/db mice; [1]) [%]	inhibition in vivo at 0.3 mg/kg (db/db mice; [2]) [%]
OC[C@H]1O[C@]2(OCc3cc(Cl)c(Cc4ccc(OC(F)(F)F)cc4)cc32)[C@H](O)[C@@H](O)[C@@H]1O [Example 11, (1S,3′R,4′S,5′S,6′R)-5-chloro-6-[(4-trifluoromethoxyphenyl)methyl]-3′,4′,5′,6′-tetrahydro-6′-(hydroxymethyl)-spiro[isobenzofuran-1(3H),2′-[2H]pyran]-3′,4′,5′-triol]	1.9		45
CCc1ccc(Cc2cc3c(cc2F)CO[C@]32O[C@H](CO)[C@@H](O)[C@H](O)[C@H]2O)cc1 [Example 16, (1S,3′R,4′S,5′S,6′R)-6-[(4-ethylphenyl)methyl]-5-fluoro-3′,4′,5′,6′-tetrahydro-6′-(hydroxymethyl)-spiro[isobenzofuran-1(3H),2′-[2H]pyran]-3′,4′,5′-triol]	1.5	≥ 25	
CC(=O)c1ccc(Cc2cc3c(cc2Cl)CO[C@]32O[C@H](CO)[C@@H](O)[C@H](O)[C@H]2O)cc1 [Example 12, (1S,3′R,4′S,5′S,6′R)-6-[(4-acetylphenyl)methyl]-5-chloro-3′,4′,5′,6′-tetrahydro-6′-(hydroxymethyl)-spiro[isobenzofuran-1(3H),2′-[2H]pyran]-3′,4′,5′-triol]	1.5		27
CC(C)c1ccc(Cc2cc3c(cc2F)CO[C@]32O[C@H](CO)[C@@H](O)[C@H](O)[C@H]2O)cc1 [Example 19, (1S,3′R,4′S,5′S,6′R)-5-fluoro-3′,4′,5′,6′-tetrahydro-6′-(hydroxymethyl)-6-[(4-isopropylphenyl)methyl]-spiro[isobenzofuran-1(3H),2′-[2H]pyran]-3′,4′,5′-triol]	2	≥ 25	
OC[C@H]1O[C@]2(OCc3cc(Cl)c(Cc4ccc(Cl)cc4)cc32)[C@H](O)[C@@H](O)[C@@H]1O [Example 6, (1S,3′R,4′S,5′S,6′R)-5-chloro-6-[(4-chlorophenyl)methyl]-3′,4′,5′,6′-tetrahydro-6′-(hydroxymethyl)-spiro[isobenzofuran-1(3H),2′-[2H]pyran]-3′,4′,5′-triol]	1.3	≥ 25	
OC[C@H]1O[C@]2(OCc3cc(Cl)c(Cc4ccc(CC(F)F)cc4)cc32)[C@H](O)[C@@H](O)[C@@H]1O [Example 10, (1S,3′R,4′S,5′S,6′R)-5-chloro-6-[(4-(2,2-difluoroethyl)phenyl)methyl]-3′,4′,5′,6′-tetrahydro-6′-(hydroxymethyl)-spiro[isobenzofuran-1(3H),2′-[2H]pyran]-3′,4′,5′-triol]	1.2	≥ 25	
